Laboratory results published in PubChem BioAssay AID316 (DTP/NCI, 2004).
Where “and” joins values, the source holds several entries; their conditions need not be identical. Identical values can stand only once. Inconclusive results and toxic doses are left out.

Tested on: P1534 leukemia ip, CD2F1 mice, survival T/C
Assay: NCI In Vivo Anticancer Drug Screen. Data for tumor model P1534 Leukemia (intraperitoneal) in CD2F1 (CDF1) mice
Details: endpoint: mean survival time, schedule: Q01DX010 (ip), vehicle: saline, higher = longer survival
Description: The antitumor activity of compounds was measured in mice bearing transplantable tumors. Survival or tumor size were measured and the results are expressed as the measurement made in the treated group (T) divided by the measurement made in the vehicle treated control group (C). The tumor model used in this assay is P1534 Leukemia (intraperitoneal) in CD2F1 (CDF1) mice

`OCCOCCN1CCN(CCCN2c3ccccc3Sc3ccc(C(F)(F)F)cc32)CC1` was tested, and the T/C (dose: 5.0 mg/kg/injection) was 100 % of control, the T/C (dose: 10.0 mg/kg/injection) was 111 % of control and the T/C (dose: 20.0 mg/kg/injection) was 123 % of control. The T/C (dose: 40.0 mg/kg/injection) was 119 % of control.

With `O=C1C(=O)N(CN2CCCCC2)c2ccccc21` the T/C (dose: 50.0 mg/kg/injection) was 100 % of control, the T/C (dose: 100.0 mg/kg/injection) was 100 % of control and the T/C (dose: 200.0 mg/kg/injection) was 96 % of control. For the same molecule, the T/C (dose: 400.0 mg/kg/injection) was 100 % of control.

For `CC1CCC2C(C)C3C(CC4C5CC=C6CC(OC7OC(CO)C(O)C(OC8OC(CO)C(O)C(O)C8O)C7OC7OC(C)C(O)C(O)C7O)CCC6(C)C5CCC43C)N2C1` (stereo not drawn), the T/C (dose: 50.0 mg/kg/injection) was 96 % of control, the T/C (dose: 100.0 mg/kg/injection) was 100 % of control and the T/C (dose: 200.0 mg/kg/injection) was 96 % of control. The T/C (dose: 400.0 mg/kg/injection) was 92 % of control.

With `CN(CC(=O)NCCCCCCCCCCNC(=O)CN(C)C(=O)OCc1ccccc1)C(=O)OCc1ccccc1` the T/C (dose: 50.0 mg/kg/injection) was 96 % of control, the T/C (dose: 100.0 mg/kg/injection) was 96 % of control and the T/C (dose: 200.0 mg/kg/injection) was 96 % of control. The T/C (dose: 400.0 mg/kg/injection) was 96 % of control.

In the case of `COC(=O)C1C(O)CCC2CN3CCc4c([nH]c5ccccc45)C3CC21` (stereo not drawn), the T/C (dose: 2.5 mg/kg/injection) is reported as 100 % of control, the T/C (dose: 5.0 mg/kg/injection) is reported as 100 % of control and the T/C (dose: 10.0 mg/kg/injection) is reported as 100 % of control. For the same molecule, the T/C (dose: 20.0 mg/kg/injection) was 96 % of control.

With `COC1=C(N)C(=O)c2nc(-c3nc(C(=O)O)c(C)c(-c4ccc(OC)c(OC)c4O)c3N)ccc2C1=O` the T/C (dose: 0.06 mg/kg/injection) was 117 % of control, the T/C (dose: 0.09 mg/kg/injection) was 110 % of control and the T/C (dose: 0.13 mg/kg/injection) was 103 % of control.

In the case of `CN(C)CC(=O)NCCCCCCCCCCNC(=O)CN(C)C`, the T/C (dose: 100.0 mg/kg/injection) is reported as 100 % of control, the T/C (dose: 200.0 mg/kg/injection) is reported as 100 % of control and the T/C (dose: 400.0 mg/kg/injection) is reported as 107 % of control.

In the case of `Cc1cc(N(CCCl)CCCl)ccc1C=Nc1ccccc1-c1ccccc1`, the T/C (dose: 25.0 mg/kg/injection) is reported as 100 % of control, the T/C (dose: 50.0 mg/kg/injection) is reported as 100 % of control and the T/C (dose: 100.0 mg/kg/injection) is reported as 100 % of control.

With `CN(C)c1ccc(C(N)=O)cn1` the T/C (dose: 1.5 mg/kg/injection) was 115 % of control and the T/C (dose: 3.0 mg/kg/injection) was 123 % of control.

In the case of `CNCC(O)(C(=O)O)C(=O)O`, the T/C (dose: 50.0 mg/kg/injection) is reported as 103 % of control and the T/C (dose: 100.0 mg/kg/injection) is reported as 96 % of control.

With `Nc1nc(F)nc2c1ncn2C1OC(CO)C(O)C1O` (stereo not drawn) the T/C (dose: 1.0 mg/kg/injection) was 110 % of control and 100 % of control, the T/C (dose: 2.0 mg/kg/injection) was 103 % of control and the T/C (dose: 4.0 mg/kg/injection) was 96 % of control. For the same molecule, the T/C (dose: 8.0 mg/kg/injection) was 92 % of control.

`CC[C@]12C=CCN3CC[C@@]4(c5ccc(OC)cc5N(C)[C@H]4[C@@](O)(C(=O)OC)[C@@H]1OC(C)=O)[C@@H]32` was tested, and the T/C (dose: 7.5 mg/kg/injection) was 93 % of control, the T/C (dose: 15.0 mg/kg/injection) was 93 % of control and the T/C (dose: 30.0 mg/kg/injection) was 96 % of control. The T/C (dose: 60.0 mg/kg/injection) was 86 % of control.

With `Nc1nc(=S)c2ncn(C3OC(CO)C(O)C3O)c2[nH]1` (stereo not drawn) the T/C (dose: 0.31 mg/kg/injection) was 103 % of control, the T/C (dose: 0.63 mg/kg/injection) was 103 % of control and the T/C (dose: 1.25 mg/kg/injection) was 106 % of control.

`CCCCOP(=S)(N1CC1)N1CC1` was tested, and the T/C (dose: 4.0 mg/kg/injection) was 115 % of control and the T/C (dose: 8.0 mg/kg/injection) was 123 % of control.

`O=C(Nc1ccc(C2=NCCCN2)cc1)c1ccc(C(=O)Nc2ccc(C3=NCCCN3)cc2)cc1` was tested, and the T/C (dose: 1.0 mg/kg/injection) was 109 % of control, the T/C (dose: 2.0 mg/kg/injection) was 113 % of control and 118 % of control and the T/C (dose: 8.0 mg/kg/injection) was 150 % of control.

For `COc1c(OC2OC(CO)C(O)C(O)C2O)cc2c(c1OC)-c1ccc(OC)c(=O)cc1C(NC(C)=O)CC2` (stereo not drawn), the T/C (dose: 6.25 mg/kg/injection) was 107 % of control, the T/C (dose: 12.5 mg/kg/injection) was 107 % of control and the T/C (dose: 25.0 mg/kg/injection) was 107 % of control. The T/C (dose: 50.0 mg/kg/injection) was 107 % of control and 110 % of control.
